Each compound was assayed on MDA-MB-231 (assay: Antiproliferative activity against human MDA-MB-231 cells assessed inhibition of cell growth incubated for 72 hrs by alamar blue assay). Settings: MDA-MB-231, 72 h.
Assay type: functional, cell-based

| IC50 [nM] | SMILES |
| --- | --- |
| 1010 | CC1=C/C=C/C(=O)O[C@@H]([C@H](C)[C@H](O)[C@@H](C)NS(C)(=O)=O)[C@H](C)/C=C/C(C)=C/[C@H]2C=CCC[C@@]2(C)\C=C\1 |
| 104 | CNC(=O)N[C@H](C)[C@@H](O)[C@@H](C)[C@@H]1OC(=O)/C=C/C=C(C)\C=C\[C@]2(C)CCC=C[C@@H]2/C=C(C)/C=C/[C@H]1C |

The remaining lines, values behind:

| SMILES | IC50 [nM] |
| --- | --- |
| COC(=O)N[C@H](C)[C@@H](O)[C@@H](C)[C@@H]1OC(=O)/C=C/C=C(C)\C=C\[C@]2(C)CCC=C[C@@H]2/C=C(C)/C=C/[C@H]1C | > 2000 |
| CC1=C/C=C/C(=O)O[C@@H]([C@H](C)[C@H](O)[C@@H](C)NC(=O)C(C)C)[C@H](C)/C=C/C(C)=C/[C@H]2C=CCC[C@@]2(C)\C=C\1 | 64 |

These compounds were tested on HCT-116 (assay: Antiproliferative activity against human HCT-116 cells assessed inhibition of cell growth incubated for 72 hrs by alamar blue assay). Settings: HCT-116, 72 h.
Assay type: functional, cell-based

| IC50 [nM] | SMILES |
| --- | --- |
| 3360 | CC1=C/C=C/C(=O)O[C@@H]([C@H](C)[C@H](O)[C@@H](C)NS(C)(=O)=O)[C@H](C)/C=C/C(C)=C/[C@H]2C=CCC[C@@]2(C)\C=C\1 |
| 136 | CNC(=O)N[C@H](C)[C@@H](O)[C@@H](C)[C@@H]1OC(=O)/C=C/C=C(C)\C=C\[C@]2(C)CCC=C[C@@H]2/C=C(C)/C=C/[C@H]1C |

Further lines, the compound ahead of its results:

| SMILES | IC50 [nM] |
| --- | --- |
| CC(=O)N[C@H](C)[C@@H](O)[C@@H](C)[C@@H]1OC(=O)/C=C/C=C(C)\C=C\[C@]2(C)CCC=C[C@@H]2/C=C(C)/C=C/[C@H]1C | 88.2 |
| COC(=O)N[C@H](C)[C@@H](O)[C@@H](C)[C@@H]1OC(=O)/C=C/C=C(C)\C=C\[C@]2(C)CCC=C[C@@H]2/C=C(C)/C=C/[C@H]1C | > 5000 |
| CC1=C/C=C/C(=O)O[C@@H]([C@H](C)[C@H](O)[C@@H](C)NC(=O)C(C)C)[C@H](C)/C=C/C(C)=C/[C@H]2C=CCC[C@@]2(C)\C=C\1 | 47.5 |

These compounds were tested on MCF7 (assay: Antiproliferative activity against human MCF7 cells assessed inhibition of cell growth incubated for 72 hrs by alamar blue assay). Settings: MCF7, 72 h.
Assay type: functional, cell-based

| IC50 [nM] | SMILES |
| --- | --- |
| 1120 | CC1=C/C=C/C(=O)O[C@@H]([C@H](C)[C@H](O)[C@@H](C)NS(C)(=O)=O)[C@H](C)/C=C/C(C)=C/[C@H]2C=CCC[C@@]2(C)\C=C\1 |
| 88.5 | CNC(=O)N[C@H](C)[C@@H](O)[C@@H](C)[C@@H]1OC(=O)/C=C/C=C(C)\C=C\[C@]2(C)CCC=C[C@@H]2/C=C(C)/C=C/[C@H]1C |

Continued, compound first:

| SMILES | IC50 [nM] |
| --- | --- |
| COC(=O)N[C@H](C)[C@@H](O)[C@@H](C)[C@@H]1OC(=O)/C=C/C=C(C)\C=C\[C@]2(C)CCC=C[C@@H]2/C=C(C)/C=C/[C@H]1C | > 2000 |
| CC1=C/C=C/C(=O)O[C@@H]([C@H](C)[C@H](O)[C@@H](C)NC(=O)C(C)C)[C@H](C)/C=C/C(C)=C/[C@H]2C=CCC[C@@]2(C)\C=C\1 | 41.4 |

Reference: ChEMBL document CHEMBL5634167, “Insights into the structure-activity relationship of the anticancer compound ZJ-101: A role played by the amide moiety” (Bioorg Med Chem Lett, 2024)
